Laboratory results published in patent publication US9938274B1, “Naphthyridine compounds, medical combinations and use thereof” (Nanjing Natinefy Pharmatech Co., Ltd., priority 2016, dated 2018).

Columns and labels:
U87MG tumor = assay: Tumor xenograft model, U87MG, tumor growth inhibition; format: in vivo, nude mice (BALB/cA nu/nu); settings: 10 mg/kg p.o. QD, day 22
[1] = In vivo pharmacokinetic study in rats
Description: An In Vivo Pharmacokinetic Study in Rats
For intravenous injection, rats are given a dose of 1 mg/kg. For oral administration, rats are given a dose of 5 mg/kg. […] The whole blood is centrifuged at 8000 rpm for 5 min to collect plasma, which is then transferred to 96-well pallet, and stored at −20° C. till LC-MS/MS testing.
Pharmacokinetic parameters among rats after medication are estimated using the non-compartment model of software WinNonlin.
The peak concentration, Cmax: the actual measurements are used;

VEGFR-2 (h) = VEGFR-2 (h) (Homo sapiens (Human), UniProt P35968); assay: HTRF KinEASE TK kinase inhibition assay, VEGFR-2; format: biochemical
c-Met (h) = c-Met (h) (Homo sapiens (Human), UniProt P08581); assay: HTRF KinEASE TK kinase inhibition assay, c-Met; format: biochemical
Axl kinase = Axl kinase (Homo sapiens (Human), UniProt P30530); assay: HTRF KinEASE TK kinase inhibition assay, Axl; format: biochemical
RET = RET (Homo sapiens (Human), UniProt P07949); assay: HTRF KinEASE TK kinase inhibition assay, RET; format: biochemical
Description: A study on inhibition of protein kinases activity at in vitro biochemical level
Material and method: kinases such as c-Met, VEGFR-2, Axl and RET, obtained from Invitrogen; HTRF KinEASE; TK kit (Cisbio Company); 384-well plate (Greiner Company); ATP (Sigma Company), MgCl2 (Sigma Company); PHERAstar FS multifunctional plate reader (BMG Company); conventional centrifuge (StaiteXiangyi Company); incubator (Binder Company).
Preparation of working solution of the compounds: Before test, aliquots of the compounds are removed from the refrigerator, and diluted with pure DMSO to 50× of the level needed; and then the compounds are diluted with deionized water to 4× of the level needed;
Preparation of 1.33× enzymatic buffer: 5× enzymatic buffer (from HTRF kit) is diluted to 1.33× with deionized water, and appropriate components of the final level 1.33× are added: 1.33 mmol/L dithiothreitol (DTT) and 1.33 mmol/L MgCl2;
Preparation of kinase working solution: Met is diluted to 2× final level required, 0.2 ng/μL, with 1.33× enzymatic buffer; […]
Reading HTRF signal: PHERAstar FS is used to read the testing signal, and its setting is as following:
For the original data read from each well, ratio=665 nm/620 nm; […]

Chain of c-Met (h) (P08581 25-1390): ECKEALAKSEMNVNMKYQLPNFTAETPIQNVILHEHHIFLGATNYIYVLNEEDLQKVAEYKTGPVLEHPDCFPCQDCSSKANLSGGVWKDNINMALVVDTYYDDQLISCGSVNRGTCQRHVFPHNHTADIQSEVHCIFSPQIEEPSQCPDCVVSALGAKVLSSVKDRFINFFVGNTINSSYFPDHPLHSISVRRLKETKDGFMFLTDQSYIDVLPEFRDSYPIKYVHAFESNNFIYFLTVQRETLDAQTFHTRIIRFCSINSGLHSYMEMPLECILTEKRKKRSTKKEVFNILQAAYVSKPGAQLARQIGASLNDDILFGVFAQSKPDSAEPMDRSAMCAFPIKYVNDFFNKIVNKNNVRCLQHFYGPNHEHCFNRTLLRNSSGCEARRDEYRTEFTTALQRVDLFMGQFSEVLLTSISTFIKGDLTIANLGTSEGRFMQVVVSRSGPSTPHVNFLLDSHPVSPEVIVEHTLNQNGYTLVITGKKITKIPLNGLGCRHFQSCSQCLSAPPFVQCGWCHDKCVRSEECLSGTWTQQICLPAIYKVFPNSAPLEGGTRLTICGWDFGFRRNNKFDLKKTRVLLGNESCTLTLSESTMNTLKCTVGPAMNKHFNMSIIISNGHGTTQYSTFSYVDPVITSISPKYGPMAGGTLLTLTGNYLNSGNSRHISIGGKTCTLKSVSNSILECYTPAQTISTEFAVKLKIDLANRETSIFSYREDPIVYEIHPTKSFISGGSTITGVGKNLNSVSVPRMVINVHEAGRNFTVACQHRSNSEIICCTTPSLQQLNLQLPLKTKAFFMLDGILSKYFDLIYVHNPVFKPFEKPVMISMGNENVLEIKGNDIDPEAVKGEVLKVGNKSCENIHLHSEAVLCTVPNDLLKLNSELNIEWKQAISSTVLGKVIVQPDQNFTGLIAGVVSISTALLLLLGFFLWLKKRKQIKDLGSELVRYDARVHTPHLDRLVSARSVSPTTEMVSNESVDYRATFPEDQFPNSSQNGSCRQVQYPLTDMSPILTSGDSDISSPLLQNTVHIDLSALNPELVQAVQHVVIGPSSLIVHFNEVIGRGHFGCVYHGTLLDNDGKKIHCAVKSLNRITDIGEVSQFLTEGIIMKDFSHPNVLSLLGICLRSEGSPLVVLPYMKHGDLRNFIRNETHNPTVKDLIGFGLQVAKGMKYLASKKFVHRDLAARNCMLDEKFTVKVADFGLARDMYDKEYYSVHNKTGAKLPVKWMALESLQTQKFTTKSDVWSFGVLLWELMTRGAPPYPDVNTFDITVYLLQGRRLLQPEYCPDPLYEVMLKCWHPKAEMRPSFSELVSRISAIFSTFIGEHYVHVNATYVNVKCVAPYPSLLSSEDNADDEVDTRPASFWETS
Chain of VEGFR-2 (h) (P35968 20-1356): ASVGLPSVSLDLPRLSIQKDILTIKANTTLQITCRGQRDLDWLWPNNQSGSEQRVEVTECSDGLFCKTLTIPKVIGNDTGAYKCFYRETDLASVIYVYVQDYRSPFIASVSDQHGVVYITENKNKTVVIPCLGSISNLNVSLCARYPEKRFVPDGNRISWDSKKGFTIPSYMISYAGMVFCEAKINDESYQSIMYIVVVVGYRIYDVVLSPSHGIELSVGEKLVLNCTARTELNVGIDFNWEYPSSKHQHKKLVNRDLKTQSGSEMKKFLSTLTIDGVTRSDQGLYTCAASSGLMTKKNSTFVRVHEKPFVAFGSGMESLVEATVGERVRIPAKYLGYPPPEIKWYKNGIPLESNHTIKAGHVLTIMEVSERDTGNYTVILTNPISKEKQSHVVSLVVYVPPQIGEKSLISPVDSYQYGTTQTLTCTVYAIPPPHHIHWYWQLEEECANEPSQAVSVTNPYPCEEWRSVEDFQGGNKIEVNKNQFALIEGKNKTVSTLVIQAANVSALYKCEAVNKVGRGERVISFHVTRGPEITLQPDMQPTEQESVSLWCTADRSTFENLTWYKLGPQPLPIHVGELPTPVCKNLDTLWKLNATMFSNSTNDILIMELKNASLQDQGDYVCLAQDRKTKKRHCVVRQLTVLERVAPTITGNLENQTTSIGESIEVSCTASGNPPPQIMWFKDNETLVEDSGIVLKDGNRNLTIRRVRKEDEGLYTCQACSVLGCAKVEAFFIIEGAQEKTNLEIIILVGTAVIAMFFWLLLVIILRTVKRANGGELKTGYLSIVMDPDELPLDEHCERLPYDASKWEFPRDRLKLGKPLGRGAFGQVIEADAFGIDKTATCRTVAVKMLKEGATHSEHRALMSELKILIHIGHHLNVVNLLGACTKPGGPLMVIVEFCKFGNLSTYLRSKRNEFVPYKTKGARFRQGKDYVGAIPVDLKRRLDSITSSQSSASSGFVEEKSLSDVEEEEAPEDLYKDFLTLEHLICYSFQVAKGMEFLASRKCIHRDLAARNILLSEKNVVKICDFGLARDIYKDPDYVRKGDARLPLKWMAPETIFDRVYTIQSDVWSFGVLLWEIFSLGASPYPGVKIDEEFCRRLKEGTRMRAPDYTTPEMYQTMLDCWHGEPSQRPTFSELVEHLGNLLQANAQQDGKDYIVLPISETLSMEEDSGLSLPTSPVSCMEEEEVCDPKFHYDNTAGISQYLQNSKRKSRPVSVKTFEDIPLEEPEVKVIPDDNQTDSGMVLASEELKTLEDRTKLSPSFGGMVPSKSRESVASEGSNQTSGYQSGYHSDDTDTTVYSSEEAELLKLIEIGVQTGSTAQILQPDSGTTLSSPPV
Chain of Axl kinase (P30530 26-894): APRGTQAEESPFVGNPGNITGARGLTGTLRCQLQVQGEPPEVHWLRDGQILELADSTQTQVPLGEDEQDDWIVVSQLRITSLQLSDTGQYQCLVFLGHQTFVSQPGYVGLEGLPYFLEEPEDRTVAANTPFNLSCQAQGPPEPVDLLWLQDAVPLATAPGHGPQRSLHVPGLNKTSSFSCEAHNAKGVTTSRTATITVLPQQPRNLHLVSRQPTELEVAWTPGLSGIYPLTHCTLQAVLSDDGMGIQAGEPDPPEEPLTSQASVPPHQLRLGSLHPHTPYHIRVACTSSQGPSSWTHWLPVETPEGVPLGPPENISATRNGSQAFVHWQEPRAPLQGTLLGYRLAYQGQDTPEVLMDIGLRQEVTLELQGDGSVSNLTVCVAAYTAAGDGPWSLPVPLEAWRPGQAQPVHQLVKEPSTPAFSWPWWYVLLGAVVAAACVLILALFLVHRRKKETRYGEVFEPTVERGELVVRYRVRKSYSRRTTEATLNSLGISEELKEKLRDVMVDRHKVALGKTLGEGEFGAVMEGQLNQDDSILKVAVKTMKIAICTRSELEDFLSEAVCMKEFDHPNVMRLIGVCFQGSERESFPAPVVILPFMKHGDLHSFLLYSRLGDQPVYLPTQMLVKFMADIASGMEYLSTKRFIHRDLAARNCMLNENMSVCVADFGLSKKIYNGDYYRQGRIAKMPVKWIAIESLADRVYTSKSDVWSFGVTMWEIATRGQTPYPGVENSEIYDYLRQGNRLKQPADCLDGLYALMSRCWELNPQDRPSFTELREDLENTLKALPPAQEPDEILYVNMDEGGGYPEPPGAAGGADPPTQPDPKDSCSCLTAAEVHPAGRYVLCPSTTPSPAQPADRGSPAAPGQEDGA
Chain of RET (P07949 29-1114): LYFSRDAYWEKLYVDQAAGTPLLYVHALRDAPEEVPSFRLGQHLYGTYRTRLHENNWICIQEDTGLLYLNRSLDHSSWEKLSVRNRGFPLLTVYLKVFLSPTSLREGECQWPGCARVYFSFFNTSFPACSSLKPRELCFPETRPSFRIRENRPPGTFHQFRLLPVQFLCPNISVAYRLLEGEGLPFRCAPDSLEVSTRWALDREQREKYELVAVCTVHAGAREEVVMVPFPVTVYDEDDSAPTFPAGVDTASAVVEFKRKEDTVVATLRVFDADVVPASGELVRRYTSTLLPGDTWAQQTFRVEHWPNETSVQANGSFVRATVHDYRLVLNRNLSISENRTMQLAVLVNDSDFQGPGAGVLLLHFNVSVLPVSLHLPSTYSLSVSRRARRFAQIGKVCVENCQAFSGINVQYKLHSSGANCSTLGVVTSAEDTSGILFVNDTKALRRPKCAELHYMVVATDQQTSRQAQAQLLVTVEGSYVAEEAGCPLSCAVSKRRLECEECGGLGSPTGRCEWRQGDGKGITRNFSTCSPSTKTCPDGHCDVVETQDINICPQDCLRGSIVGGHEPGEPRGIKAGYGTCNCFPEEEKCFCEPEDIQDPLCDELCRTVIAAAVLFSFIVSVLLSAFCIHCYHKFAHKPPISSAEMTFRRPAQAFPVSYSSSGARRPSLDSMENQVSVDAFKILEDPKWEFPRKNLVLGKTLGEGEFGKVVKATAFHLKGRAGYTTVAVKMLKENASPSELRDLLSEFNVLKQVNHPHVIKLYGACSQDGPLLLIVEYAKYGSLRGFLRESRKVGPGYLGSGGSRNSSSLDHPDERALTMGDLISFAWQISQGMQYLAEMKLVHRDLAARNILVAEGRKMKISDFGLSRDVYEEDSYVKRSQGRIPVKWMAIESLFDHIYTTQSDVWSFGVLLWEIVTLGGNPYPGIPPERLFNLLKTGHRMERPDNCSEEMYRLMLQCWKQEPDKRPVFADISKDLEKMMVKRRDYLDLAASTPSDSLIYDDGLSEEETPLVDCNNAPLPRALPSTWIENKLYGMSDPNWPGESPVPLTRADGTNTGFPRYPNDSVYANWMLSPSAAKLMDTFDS

Row | IC50 (VEGFR-2 (h)) [nM] | IC50 (c-Met (h)) [nM] | Compound | also measured
1 | 60 | – | COC(C)(C)COc1ccc2c(Oc3ccc(Nc4nccc5[nH]cc(-c6ccc(F)cc6)c(=O)c45)cc3F)ccnc2c1 [Comparative compound D, reference compound] | –
2 | > 5000 | 12.7 | Cn1cc(-c2ccc(F)cc2)c(=O)c2c(Nc3ccc(Oc4ccnc5cc(OCC(C)(C)O)ccc45)c(F)c3)nccc21 [Example 10, 5-((3-fluoro-4-((7-(2-hydroxy-2-methylpropoxy)quinolin-4-yl)oxy)phenyl)amino)-3-(4-fluorophenyl)-1-methyl-1,6-naphthyridin-4(1H)-one] | –
3 | > 5000 | 9.5 | CCn1cc(-c2ccc(F)cc2)c(=O)c2c(Nc3ccc(Oc4ccnc5cc(OCC(C)(C)O)ccc45)c(F)c3)nccc21 [Example 11, 1-ethyl-5-((3-fluoro-4-((7-(2-hydroxy-2-methylpropoxy)quinolin-4-yl)oxy)phenyl)-amino)-3-(4-fluorophenyl)-1,6-naphthyridin-4(1H)-one] | –
4 | > 5000 | 7.2 | CCCn1cc(-c2ccc(F)cc2)c(=O)c2c(Nc3ccc(Oc4ccnc5cc(OCC(C)(C)O)ccc45)c(F)c3)nccc21 [Example 12, 5-((3-fluoro-4-((7-(2-hydroxy-2-methylpropoxy)quinolin-4-yl)oxy)phenyl)amino)-3-(4-fluorophenyl)-1-propyl-1,6-naphthyridin-4(1H)-one] | –
5 | > 5000 | 9 | CC(C)n1cc(-c2ccc(F)cc2)c(=O)c2c(Nc3ccc(Oc4ccnc5cc(OCC(C)(C)O)ccc45)c(F)c3)nccc21 [Example 13, 5-((3-fluoro-4-((7-(2-hydroxy-2-methylpropoxy)quinolin-4-yl)oxy)phenyl)amino)-3-(4-fluorophenyl)-1-isopropyl-1,6-naphthyridin-4(1H)-one] | –
6 | > 5000 | 14.3 | CC(C)(O)COc1ccc2c(Oc3ccc(Nc4nccc5c4c(=O)c(-c4ccc(F)cc4)cn5C4CC4)cc3F)ccnc2c1 [Example 14, 1-cyclopropyl-5-((3-fluoro-4-((7-(2-hydroxy-2-methylpropoxy)quinolin-4-yl)oxy)-phenyl)amino)-3-(4-fluorophenyl)-1,6-naphthyridin-4(1H)-one] | –
7 | > 5000 | 22.4 | CC(C)(O)COc1ccc2c(Oc3ccc(Nc4nccc5c4c(=O)c(-c4ccc(F)cc4)cn5CC4CO4)cc3F)ccnc2c1 (centres unmarked) [Example 15, 5-((3-fluoro-4-((7-(2-hydroxy-2-methylpropoxy)quinolin-4-yl)oxy)phenyl)amino)-3-(4-fluorophenyl)-1-(oxiran-2-ylmethyl)-1,6-naphthyridin-4(1H)-one] | –
8 | > 5000 | 14.4 | COCCn1cc(-c2ccc(F)cc2)c(=O)c2c(Nc3ccc(Oc4ccnc5cc(OCC(C)(C)O)ccc45)c(F)c3)nccc21 [Example 16, 5-((3-fluoro-4-((7-(2-hydroxy-2-methylpropoxy)quinolin-4-yl)oxy)phenyl)amino)-3-(4-fluorophenyl)-1-(2-methoxyethyl)-1,6-naphthyridin-4(1H)-one] | –
9 | > 5000 | 40 | CC(C)(O)COc1ccc2c(Oc3ccc(Nc4nccc5c4c(=O)c(-c4ccc(F)cc4)cn5CCO)cc3F)ccnc2c1 [Example 17, 5-((3-fluoro-4-((7-(2-hydroxy-2-methylpropoxy)quinolin-4-yl)oxy)phenyl)amino)-3-(4-fluorophenyl)-1-(2-hydroxyethyl)-1,6-naphthyridin-4(1H)-one] | –
10 | > 5000 | 40.3 | CC(C)(O)COc1ccc2c(Oc3ccc(Nc4nccc5c4c(=O)c(-c4ccc(F)cc4)cn5Cc4ccccc4)cc3F)ccnc2c1 [Example 18, 1-benzyl-5-((3-fluoro-4-((7-(2-hydroxy-2-methylpropoxy)quinolin-4-yl)oxy)phenyl)-amino)-3-(4-fluorophenyl)-1,6-naphthyridin-4(1H)-one] | –

Second part, the compound before the results:

Row | Compound | IC50 (VEGFR-2 (h)) [nM] | IC50 (c-Met (h)) [nM] | also measured
11 | COc1ccc2c(Oc3ccc(Nc4nccc5[nH]cc(-c6ccc(F)cc6)c(=O)c45)cc3F)ccnc2c1 [Comparative compound A, reference compound] | – | – | Tumor growth inhibition rate, % TGI (U87MG tumor): 55.3%
12 | O=c1c(-c2ccc(F)cc2)c[nH]c2ccnc(Nc3ccc(Oc4ccnc5cc(OCCO)ccc45)c(F)c3)c12 [Comparative compound C, reference compound] | – | – | CL ([1]; 5 mg/kg i.g.): 31.7 mL/min/kg; Vz ([1]; 5 mg/kg i.g.): 7.89 L/kg; AUC(0-t) ([1]; rat, plasma, iv, 1 mg/kg i.v.): 2290 ng·h/mL; Cmax ([1]; rat, plasma, iv, 1 mg/kg i.v.): 970 ng/mL; clearance ([1]; rat, plasma, iv, 1 mg/kg i.v.): 4.83 mL/min/kg; half-life ([1]; rat, plasma, iv, 1 mg/kg i.v.): 2.35 h; Vd ([1]; rat, plasma, iv, 1 mg/kg i.v., read-out: Vz): 1.21 L/kg; bioavailability ([1]; rat, plasma, oral, 5 mg/kg i.g. vs 1 mg/kg i.v., read-out: F (absolute bioavailability)): 16.2%; AUC(0-t) ([1]; rat, plasma, po, 5 mg/kg i.g.): 1850 ng·h/mL; Cmax ([1]; rat, plasma, po, 5 mg/kg i.g.): 530 ng/mL; half-life ([1]; rat, plasma, po, 5 mg/kg i.g.): 2.14 h
13 | COc1cc2c(Oc3ccc(Nc4nccc5[nH]cc(-c6ccc(F)cc6)c(=O)c45)cc3F)ccnc2cc1OCC(C)(C)O [Example 1, 5-((3-fluoro-4-((7-(2-hydroxy-2-methylpropoxy)-6-methoxyquinolin-4-yl)oxy)-phenyl)amino)-3-(4-fluorophenyl)-1,6-naphthyridin-4(1H)-one] | – | 19.4 | –
14 | COc1cc2c(Oc3ccc(Nc4nccc5[nH]cc(-c6ccc(F)cc6)c(=O)c45)cc3F)ccnc2cc1OCC(C)O (centres unmarked) [Example 2, 5-((3-fluoro-4-((7-(2-hydroxypropoxy)-6-methoxyquinolin-4-yl)oxy)phenyl)-amino)-3-(4-fluorophenyl)-1,6-naphthyridin-4(1H)-one] | – | 15.6 | –
15 | COc1cc2c(Oc3ccc(Nc4nccc5[nH]cc(-c6ccccc6)c(=O)c45)cc3F)ccnc2cc1OCC(C)(C)O [Example 3, 5-((3-fluoro-4-((7-(2-hydroxy-2-methylpropoxy)-6-methoxyquinolin-4-yl)oxy)-phenyl)amino)-3-phenyl-1,6-naphthyridin-4(1H)-one] | – | 20.1 | –
16 | CC(C)(O)COc1ccc2c(Oc3ccc(Nc4nccc5[nH]cc(-c6ccccc6F)c(=O)c45)cc3F)ccnc2c1 [Example 5, 5-((3-fluoro-4-((7-(2-hydroxy-2-methylpropoxy)quinolin-4-yl)oxy)phenyl)amino)-3-(2-fluorophenyl)-1,6-naphthyridin-4(1H)-one] | – | 9.4 | –
17 | CC(C)(O)COc1ccc2c(Oc3ccc(Nc4nccc5[nH]cc(-c6cccc(F)c6)c(=O)c45)cc3F)ccnc2c1 [Example 6, 5-((3-fluoro-4-((7-(2-hydroxy-2-methylpropoxy)quinolin-4-yl)oxy)phenyl)amino)-3-(3-fluorophenyl)-1,6-naphthyridin-4(1H)-one] | – | 7.9 | –
18 | CC(C)(O)COc1ccc2c(Oc3ccc(Nc4nccc5[nH]cc(-c6ccccc6)c(=O)c45)cc3F)ccnc2c1 [Example 7, 5-((3-fluoro-4-((7-(2-hydroxy-2-methylpropoxy)quinolin-4-yl)oxy)phenyl)amino)-3-phenyl-1,6-naphthyridin-4(1H)-one] | – | 7.4 | IC50 (Axl kinase): 14.9 nM; IC50 (RET): 53 nM
19 | COc1cc2nccc(Oc3ccc(Nc4nccc5[nH]cc(-c6ccc(F)cc6)c(=O)c45)cc3F)c2cc1OCC(C)(C)O [Example 8, 5-((3-fluoro-4-((6-(2-hydroxy-2-methylpropoxy)-7-methoxyquinolin-4-yl)oxy)-phenyl)amino)-3-(4-fluorophenyl)-1,6-naphthyridin-4(1H)-one] | – | 16.8 | –
20 | COc1cc2nccc(Oc3ccc(Nc4nccc5[nH]cc(-c6ccccc6)c(=O)c45)cc3F)c2cc1OCC(C)(C)O [Example 9, 5-((3-fluoro-4-((6-(2-hydroxy-2-methylpropoxy)-7-methoxyquinolin-4-yl)oxy)-phenyl)amino)-3-phenyl-1,6-naphthyridin-4(1H)-one] | – | 13.3 | –
